Data as given in patent US10966426B2, “Herbicidal compositions comprising phenylpyrimidines” (BASF SE, priority 2016, dated 2021).

Legend:
Assay type in all cases: in vivo
Lolium multiflorum = assay: greenhouse post-emergence treatment, LOLMU
Outline: (§1)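 Seeds sown per species in loamy sand substrate (about 3.0% humus); some raised separately and transplanted shortly before treatment. Treatments applied in water post-emergence, plants held at 10-25° C. or 20-35° C. by species, then scored after 2 to 4 weeks, where 100 means total kill and 0 no damage.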

Echinocloa crus-galli = assay: greenhouse post-emergence treatment, ECHCG
Description: (§2) The culture containers used were plastic pots containing loamy sand with approximately 3.0% of humus as substrate. The seeds of the test plants were sown separately for each species.
(§3) For the post-emergence treatment, the test plants were grown to a plant height of from 3 to 15 cm, depending on the plant habit, and only then treated with the active compounds which had been suspended or emulsified in water. To this end, the test plants were either sown directly, and grown in the same containers, or they were first grown separately as seedlings and transplanted into the test containers a few days prior to treatment.
(§4) Depending on the species, the plants were kept at 10-25° C. and 20-35° C., respectively.
(§5) The test period extended over 2 to 4 weeks. During this time, the plants were tended and their response to the individual treatments was evaluated.
(§6) Evaluation was carried out using a scale from 0 to 100. 100 means no emergence of the plants, or complete destruction of at least the above-ground parts, and 0 means no damage or normal course of growth. A good herbicidal activity is given at values of at least 70, and very good herbicidal activity is given at values of at least 85.
(§7) The respective stated components A and B, and if appropriate, C were formulated as a 10% by weight strength emulsion concentrate and, with addition of the amount of solvent system, introduced into the spray liquor used for applying the active compound. In the examples, the solvent used was water.
(§8) In the examples below, using the method of S. R. Colby (1967) “Calculating synergistic and antagonistic responses of herbicide combinations”, Weeds 15, p. 22ff., the value E, which is expected if the activity of the individual active compounds is only additive, was calculated. E=X+Y−(X·Y/100) where X=effect in percent using herbicide A at an application rate a; • Y=effect in percent using herbicide B at application rate b; • E=expected effect (in %) of herbicide A+herbicide B at application rates a+b.

Galium aparine = assay: greenhouse post-emergence treatment, GALAP; conditions: for % activity: 20 DAT
Outline: (§9)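 Scale 0–100 damage rating (100 = complete destruction of above-ground parts, 0 = normal growth), read 2 to 4 weeks after post-emergence application of aqueous spray liquor to plants 3–15 cm tall.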

Matricaria chamomilla = assay: greenhouse post-emergence treatment, MATCH; conditions: for % activity: 20 DAT
Outline: as §9

Setaria viridis = assay: greenhouse post-emergence treatment, SETVI; conditions: for % activity: 20 DAT
Outline: as §1

Stellaria media = assay: greenhouse post-emergence treatment, STEME
Outline: (§10)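 Test plants reached 3 to 15 cm before being sprayed with components A, B and, where applicable, C as emulsion concentrates in water. After 2 to 4 weeks at species-dependent temperatures, injury was rated 0–100.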

Polygonum convolvulus = assay: greenhouse post-emergence treatment, POLCO
Outline: as §9

Papaver rhoeas = assay: greenhouse post-emergence treatment, PAPRH; conditions: for % activity: 20 DAT
Outline: as §9

Digitaria sanguinalis = assay: greenhouse post-emergence treatment, DIGSA; conditions: for % activity: 20 DAT
Outline: as §1

Ambrosia elatior = assay: greenhouse post-emergence treatment, AMBEL; conditions: for % activity: 20 DAT
Description: as §2, §3, §4, §5, §6, §7, §8

Poa annua = assay: greenhouse post-emergence treatment, POAAN; conditions: Poa annua, 504 h, pyroxasulfone solo 15 gai/ha, 21 DAT, POAAN
Description: as §2, §3, §4, §5, §6, §7, §8

Brachiaria decumbens = assay: greenhouse post-emergence treatment, BRADC; conditions: Urochloa decumbens, 504 h, 21 DAT, BRADC
Outline: as §10

Bromus sterilis = assay: greenhouse post-emergence treatment, BROST; conditions: Bromus sterilis, 504 h, 21 DAT, BROST
Outline: as §1

Alopecurus myosuroides = assay: greenhouse post-emergence treatment, ALOMY; conditions: Alopecurus myosuroides, 504 h, 21 DAT, ALOMY
Outline: as §1

Avena fatua = assay: greenhouse post-emergence treatment, AVEFA; conditions: Avena fatua, 504 h, 21 DAT, AVEFA
Outline: as §1

[1] = 20 DAT, mesosulfuron solo 2 gai/ha

COC(=O)c1ccc(CNS(C)(=O)=O)cc1S(=O)(=O)NC(=O)Nc1nc(OC)cc(OC)n1 [mesosulfuron]
% activity (Lolium multiflorum; 20 DAT, mesosulfuron solo 8 gai/ha): 90% | % activity (Echinocloa crus-galli; [1]): 0% | % activity (Galium aparine; mesosulfuron solo 4 gai/ha): 65% | % activity (Galium aparine; mesosulfuron solo 8 gai/ha): 75% | % activity (Galium aparine; mesosulfuron solo (Mesosulfuron - Methyl WG […]), 1 gai/ha, GALAP): 55% | % activity (Galium aparine; mesosulfuron solo (Mesosulfuron - Methyl WG […]), 2 gai/ha, GALAP): 65% | % activity (Galium aparine; mesosulfuron solo (Mesosulfuron - Methyl WG […]), 4 gai/ha, GALAP): 65% | % activity (Galium aparine; mesosulfuron solo (Mesosulfuron - Methyl WG […]), 8 gai/ha, GALAP): 75% | % activity (Matricaria chamomilla; mesosulfuron solo 1 gai/ha): 30% | % activity (Matricaria chamomilla; mesosulfuron solo 2 gai/ha): 30% | % activity (Matricaria chamomilla; mesosulfuron solo 8 gai/ha): 90% | % activity (Matricaria chamomilla; mesosulfuron solo 9 gai/ha): 90% | % activity (Matricaria chamomilla; mesosulfuron solo (Mesosulfuron - Methyl WG […]), 2 gai/ha, MATCH): 30% | % activity (Setaria viridis; mesosulfuron solo 8 gai/ha): 85% | % activity (Setaria viridis; mesosulfuron solo (Mesosulfuron - Methyl WG […]), 8 gai/ha, SETVI): 85% | % activity (Stellaria media; 20 DAT, mesosulfuron solo 1 gai/ha): 95% | % activity (Polygonum convolvulus; [1]): 30% | % activity (Papaver rhoeas; mesosulfuron solo 1 gai/ha): 70% | % activity (Papaver rhoeas; mesosulfuron solo 2 gai/ha): 90% | % activity (Papaver rhoeas; mesosulfuron solo 8 gai/ha): 98% | % activity (Papaver rhoeas; mesosulfuron solo (Mesosulfuron - Methyl WG […]), 1 gai/ha, PAPRH): 70% | % activity (Digitaria sanguinalis; mesosulfuron solo 1 gai/ha): 0% | % activity (Digitaria sanguinalis; mesosulfuron solo 2 gai/ha): 0% | % activity (Digitaria sanguinalis; mesosulfuron solo 4 gai/ha): 20% | % activity (Ambrosia elatior; mesosulfuron solo 2 gai/ha): 80% | % activity (Ambrosia elatior; mesosulfuron solo 4 gai/ha): 85%

Cn1nc(C(F)(F)F)c(CS(=O)(=O)C2=NOC(C)(C)C2)c1OC(F)F [pyroxasulfone]
inhibition at 15 g/ha (Poa annua): 70% | inhibition at […] (Lolium multiflorum; Lolium multiflorum, 504 h, pyroxasulfone solo 7.5 gai/ha, 21 DAT, LOLMU): 40% | inhibition at 15 g/ha (Lolium multiflorum; Lolium multiflorum, 504 h, pyroxasulfone solo 15 gai/ha, 21 DAT, LOLMU): 65% | inhibition at 30 g/ha (Lolium multiflorum; Lolium multiflorum, 504 h, pyroxasulfone solo 30 gai/ha, 21 DAT, LOLMU): 70% | inhibition at 60 g/ha (Echinocloa crus-galli; Echinochloa crus-galli, 504 h, pyroxasulfone solo 60 gai/ha, 21 DAT, ECHCG, read-out: % activity): 80% | inhibition at […] (Brachiaria decumbens; pyroxasulfone solo 7.5 gai/ha): 0% | inhibition at 30 g/ha (Brachiaria decumbens; pyroxasulfone solo 30 gai/ha, read-out: % activity): 55% | inhibition at 60 g/ha (Brachiaria decumbens; pyroxasulfone solo 60 gai/ha, read-out: % activity): 75% | pest or weed control at 15 g/ha (Galium aparine; Galium aparine, 504 h, GALAP, solo pyroxasulfone (WG 85%) 15 gai/ha, 21 DAT): 70% | inhibition at […] (Galium aparine; Galium aparine, 504 h, pyroxasulfone solo 7.5 gai/ha, 21 DAT, GALAP): 40% | pest or weed control at 15 g/ha (Matricaria chamomilla; Matricaria chamomilla, 504 h, MATCH, solo pyroxasulfone (WG 85%) 15 gai/ha, 21 DAT): 0% | inhibition at 15 g/ha (Matricaria chamomilla; Matricaria chamomilla, 504 h, pyroxasulfone solo 15 gai/ha, 21 DAT, MATCH): 0% | pest or weed control at 15 g/ha (Setaria viridis; Setaria viridis, 504 h, SETVI, solo pyroxasulfone (WG 85%) 15 gai/ha, 21 DAT): 40% | inhibition at 30 g/ha (Stellaria media; Stellaria media, 504 h, pyroxasulfone solo 30 gai/ha, 21 DAT, STEME): 0% | pest or weed control at […] (Polygonum convolvulus; Fallopia convolvulus, 504 h, POLCO, solo pyroxasulfone (WG 85%) 7.5 gai/ha, 21 DAT): 30% | pest or weed control at 15 g/ha (Polygonum convolvulus; Fallopia convolvulus, 504 h, POLCO, solo pyroxasulfone (WG 85%) 15 gai/ha, 21 DAT): 30% | pest or weed control at 30 g/ha (Polygonum convolvulus; Fallopia convolvulus, 504 h, POLCO, solo pyroxasulfone (WG 85%) 30 gai/ha, 21 DAT): 30% | pest or weed control at 60 g/ha (Polygonum convolvulus; Fallopia convolvulus, 504 h, POLCO, solo pyroxasulfone (WG 85%) 60 gai/ha, 21 DAT): 30% | inhibition at […] (Polygonum convolvulus; Fallopia convolvulus, 504 h, pyroxasulfone solo 7.5 gai/ha, 21 DAT, POLCO): 30% | inhibition at 15 g/ha (Polygonum convolvulus; Fallopia convolvulus, 504 h, pyroxasulfone solo 15 gai/ha, 21 DAT, POLCO): 30% | inhibition at 30 g/ha (Polygonum convolvulus; Fallopia convolvulus, 504 h, pyroxasulfone solo 30 gai/ha, 21 DAT, POLCO): 30% | inhibition at 60 g/ha (Polygonum convolvulus; Fallopia convolvulus, 504 h, pyroxasulfone solo 60 gai/ha, 21 DAT, POLCO): 30% | pest or weed control at […] (Papaver rhoeas; Papaver rhoeas, 504 h, PAPRH, solo pyroxasulfone (WG 85%) 7.5 gai/ha, 21 DAT): 0% | pest or weed control at 15 g/ha (Papaver rhoeas; Papaver rhoeas, 504 h, PAPRH, solo pyroxasulfone (WG 85%) 15 gai/ha, 21 DAT): 0% | pest or weed control at 30 g/ha (Papaver rhoeas; Papaver rhoeas, 504 h, PAPRH, solo pyroxasulfone (WG 85%) 30 gai/ha, 21 DAT): 30% | pest or weed control at 60 g/ha (Papaver rhoeas; Papaver rhoeas, 504 h, PAPRH, solo pyroxasulfone (WG 85%) 60 gai/ha, 21 DAT): 60% | inhibition at 15 g/ha (Papaver rhoeas; Papaver rhoeas, 504 h, pyroxasulfone solo 15 gai/ha, 21 DAT, PAPRH): 0% | inhibition at 60 g/ha (Papaver rhoeas; Papaver rhoeas, 504 h, pyroxasulfone solo 60 gai/ha, 21 DAT, PAPRH): 60% | pest or weed control at […] (Digitaria sanguinalis; Digitaria sanguinalis, 504 h, DIGSA, solo pyroxasulfone (WG 85%) 7.5 gai/ha, 21 DAT): 0% | pest or weed control at 15 g/ha (Digitaria sanguinalis; Digitaria sanguinalis, 504 h, DIGSA, solo pyroxasulfone (WG 85%) 15 gai/ha, 21 DAT): 0% | inhibition at […] (Bromus sterilis; pyroxasulfone solo 7.5 gai/ha): 20% | inhibition at 15 g/ha (Bromus sterilis; pyroxasulfone solo 15 gai/ha): 40% | inhibition at […] (Alopecurus myosuroides; pyroxasulfone solo 7.5 gai/ha): 35% | inhibition at 30 g/ha (Alopecurus myosuroides; pyroxasulfone solo 30 gai/ha): 65% | inhibition at 30 g/ha (Ambrosia elatior; Ambrosia artemisiifolia, 504 h, pyroxasulfone solo 30 gai/ha, 21 DAT, AMBEL): 20% | inhibition at 60 g/ha (Ambrosia elatior; Ambrosia artemisiifolia, 504 h, pyroxasulfone solo 60 gai/ha, 21 DAT, AMBEL): 60% | inhibition at […] (Avena fatua; pyroxasulfone solo 7.5 gai/ha): 25% | inhibition at 15 g/ha (Avena fatua; pyroxasulfone solo 15 gai/ha): 30%
